According to ChEMBL document CHEMBL1157528, “Mixed tetraoxanes containing the acetone subunit as antimalarials” (Bioorg Med Chem, 2008):
Active and inactive are the calls of the source. No cut-off for these calls is given here.

Columns and labels:
[1] = tested on: Plasmodium falciparum; assay: microbe, parasite or virus in culture; conditions: D6
Description: Antimalarial activity against chloroquine and pyrimethamine-sensitive Plasmodium falciparum D6

[2] = tested on: Plasmodium falciparum; assay: microbe, parasite or virus in culture; conditions: RCS
Description: Antimalarial activity against chloroquine-resistant, mefloquine-sensitive Plasmodium falciparum RCS

[3] = tested on: Plasmodium falciparum; assay: microbe, parasite or virus in culture; conditions: TM91C235
Description: Antimalarial activity against mefloquine, chloroquine and quinine-resistant Plasmodium falciparum TM91C235

[4] = tested on: Plasmodium falciparum; assay: microbe, parasite or virus in culture; conditions: W2
Description: Antimalarial activity against chloroquine and pyrimethamine-resistant Plasmodium falciparum W2

[5] = Metabolic stability in mouse liver microsomes assessed as half life at 10 uM; assay type: ADME, Microsome
[6] = Metabolic stability in human liver microsomes assessed as half life at 10 uM; assay type: ADME, Microsome
[7] = Cytotoxicity against human NCI60 cells; assay type: functional
[8] = tested on: A498; assay: Antiproliferative activity against human A498 cells; assay type: functional
[9] = tested on: Plasmodium falciparum; assay: Relative activity against Plasmodium falciparum W2 as ratio of IC90 to IC50; assay type: functional
[10] = tested on: Plasmodium falciparum; assay: Relative activity against Plasmodium falciparum TM91C235 as fold-lower IC90/IC50 ratio relative to mefloquine
[11] = tested on: Plasmodium berghei; assay: Antimalarial activity as survival time in Plasmodium berghei KBG173 infected CD1 mice (Mus musculus) at 20 mg/kg/day peroral dose; assay type: functional; conditions: route oral
[12] = tested on: Plasmodium berghei; assay: Antimalarial activity as parasite-free survivors at day 31 of Plasmodium berghei KBG173 infected CD1 mice (Mus musculus) at 320 mg/kg/day peroral dose; assay type: functional, organism-based
[13] = tested on: Plasmodium berghei; assay: Antimalarial activity as survival time against Plasmodium berghei KBG173 infected CD1 mice (Mus musculus) at 80 mg/kg/day peroral dose 3 - 5 days post infection; assay type: functional; conditions: route oral
[14] = tested on: Plasmodium berghei; assay: Antimalarial activity as parasite-free survivors at day 31 of Plasmodium berghei KBG173 infected CD1 mice (Mus musculus) at 20 mg/kg/day peroral dose; assay type: functional, organism-based
[15] = tested on: Plasmodium berghei; assay: Antimalarial activity as survival time in Plasmodium berghei KBG173 infected CD1 mice (Mus musculus) at 320 mg/kg/day peroral dose; assay type: functional; conditions: route oral

| Compound | IC50 [1] [nM] | IC90 [1] [nM] | IC90 [2] [nM] | IC90 [3] [nM] | IC50 [4] [nM] | IC90 [4] [nM] | half-life at 10 µM [5] [min] | half-life at 10 µM [6] [min] | IC50 [2] [nM] | IC50 [3] [nM] | GI50 [7] [nM] | LC50 [7] [nM] | TGI [7] [nM] | other results |
| --- | --- | --- | --- | --- | --- | --- | --- | --- | --- | --- | --- | --- | --- | --- |
| C[C@@H]1CC[C@H]2[C@@H](C)C(=O)O[C@@H]3O[C@@]4(C)CC[C@@H]1[C@]32OO4 [ARTEMISININ] | 9 | 12.8 | 13 | 13 | 6.7 | 11.5 |  |  |  |  |  |  |  |  |
| CC(=O)O[C@H]1C[C@H]2[C@@H]([C@H](OC(C)=O)C[C@@H]3CC4(CC[C@@]32C)OOC(C)(C)OO4)[C@@H]2CC[C@H]([C@H](C)CCC(=O)N(C)C)[C@@]12C | 35.5 | 71.5 | 14 | 50.9 | 17.3 | 31.6 | 17 | 49 | 7.19 | 25.1 | 17000 | 75900 | 41700 |  |
| C[C@H](CCC(N)=O)[C@H]1CC[C@H]2[C@@H]3[C@H](O)C[C@@H]4CC5(CC[C@]4(C)[C@H]3C[C@H](O)[C@]12C)OOC(C)(C)OO5 | 215 | 347 | 168 | 498 | 153 | 234 | > 60 | > 60 | 38.7 | 228 | 980 | 11200 | 3800 | GI50 [8]: 92 nM; TGI [8]: 710 nM; CC50 ([8]; read-out: LC50 (the source's name)): 11500 nM |
| CCN(CC)CCCC(C)Nc1ccnc2cc(Cl)ccc12 (stereo unspecified) [CHLOROQUINE] |  | 17.6 | 397 |  |  |  |  |  |  |  |  |  |  |  |
| O[C@@H](c1cc(C(F)(F)F)nc2c(C(F)(F)F)cccc12)[C@H]1CCCCN1 [MEFLOQUINE] |  |  | 5 |  |  |  |  |  | 2.33 |  |  |  |  | Ratio [9]: 1.71; fold-lower IC90/IC50 ratio vs mefloquine [10]: 1.5 |
| CC(=O)O[C@H]1C[C@H]2[C@@H]([C@H](OC(C)=O)C[C@@H]3CC4(CC[C@@]32C)OOC(C)(C)OO4)[C@@H]2CC[C@H]([C@H](C)CCC(=O)O)[C@@]12C | 46.5 | 96.3 |  | 231 | 36 | 94.7 | > 60 | > 60 |  | 60.4 | 15500 | 75900 | 37200 | Survival [11]: 10 days; Activity [12]: inactive; Survival [13]: 15 days; Activity [14]: inactive; Survival [15]: 17 days |
| CC(=O)O[C@H]1C[C@H]2[C@@H]([C@H](OC(C)=O)C[C@@H]3CC4(CC[C@@]32C)OOC(C)(C)OO4)[C@@H]2CC[C@H]([C@H](C)CCC(=O)Nc3ccccc3)[C@@]12C | 6.97 | 20.8 | 4.45 | 20.9 | 5.02 | 14.3 | 16 | 19 | 1.89 | 15.8 |  |  |  | Survival [11]: 23 days; Survival [13]: 25 days; fold-lower IC90/IC50 ratio vs mefloquine [10]: 3; Survival [15]: 23 days |
